Measured values taken from US12077503B2, “Substituted cyclic amides and their use as herbicides” (FMC CORPORATION, priority 2015, dated 2024).

What was measured:
Type in all cases: in vivo
[1] = system: giant foxtail (Setaria faberi); test: Test G Post-Emergence Protocol; conditions: Setaria faberi, post-emergence, 312 h
Outline: (§1)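 Pot-grown seedlings, 8 days old, raised in a glasshouse at 24/16 °C day/night with 14 h light and 65% humidity, were sprayed post-emergence with test compound in acetone/water (50:50) plus 0.5% Tween 20 at 15.625, 62.5 or 250 g/ha. Damage was scored visually 13 days later on a 0–100 scale (100 = total damage).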

[2] = system: velvetleaf (Abutilon theophrasti); test: Test G Post-Emergence Protocol; conditions: Abutilon theophrasti, post-emergence, 312 h
Outline: as §1

[3] = system: barnyardgrass (Echinochloa crus-galli); test: Test G Post-Emergence Protocol; conditions: Echinochloa crus-galli, post-emergence, 312 h
Outline: as §1

corn (Zea mays) [4] = test: Test G Post-Emergence Protocol; conditions: Zea mays, post-emergence, 312 h
Outline: as §1

[5] = system: redroot pigweed (Amaranthus retroflexus); test: Test G Post-Emergence Protocol; conditions: Amaranthus retroflexus, post-emergence, 312 h
Outline: as §1

[6] = system: ivy-leaved morning glory (Ipomoea hederacea); test: Test G Post-Emergence Protocol; conditions: Ipomoea, post-emergence, 312 h
Outline: as §1

[7] = system: giant foxtail (Setaria faberi); test: Test G Pre-Emergence Protocol; conditions: Setaria faberi, pre-emergence, 312 h, evaluated after 13 days
Outline: (§2)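 Herbicidal effect was rated 13 days post-application on a scale where 100 equals total damage. Spraying took place the day after sowing, using 15.625, 62.5 or 250 g/ha of compound in a 50:50 acetone/water solution with 0.5% Tween 20.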

[8] = system: velvetleaf (Abutilon theophrasti); test: Test G Pre-Emergence Protocol; conditions: Abutilon theophrasti, pre-emergence, 312 h, evaluated after 13 days
Outline: as §2

[9] = system: barnyardgrass (Echinochloa crus-galli); test: Test G Pre-Emergence Protocol; conditions: Echinochloa crus-galli, pre-emergence, 312 h, evaluated after 13 days
Outline: as §2

corn (Zea mays) [10] = test: Test G Pre-Emergence Protocol; conditions: Zea mays, pre-emergence, 312 h, evaluated after 13 days
Outline: as §2

[11] = system: redroot pigweed (Amaranthus retroflexus); test: Test G Pre-Emergence Protocol; conditions: Amaranthus retroflexus, pre-emergence, 312 h, evaluated after 13 days
Outline: as §2

[12] = system: ivy-leaved morning glory (Ipomoea hederacea); test: Test G Pre-Emergence Protocol; conditions: Ipomoea, pre-emergence, 312 h, evaluated after 13 days
Outline: as §2

COc1c(Cl)ccc([C@H]2CN(C)C(=O)[C@@H]2C(=O)Nc2cccc(F)n2)c1F (racemic) [Compound 1477]
30%: plant injury at 15.625 g/ha (corn (Zea mays) [4]; 15.625 g ai/ha, evaluated after 13 days (100=total damage to plant; 0=no damage to plant), read-out: Corn damage rating) | pest or weed control at 250 g/ha ([5]; 250 g ai/ha, evaluated after 13 days, read-out: damage to plant, Pigweed, Redroot (100=total damage to plant; 0=no damage to plant))
40%: plant injury at 62.5 g/ha (corn (Zea mays) [10]; 62.5 g ai/ha, 100=total damage to plant, 0=no damage to plant, read-out: plant damage rating, Corn)
90%: pest or weed control at 250 g/ha ([7]; 250 g ai/ha, read-out: Foxtail, Giant damage rating (100=total damage to plant; 0=no damage to plant))
20%: pest or weed control at 62.5 g/ha ([2]; 62.5 g ai/ha, evaluated after 13 days, read-out: Velvetleaf damage rating (100=total damage to plant; 0=no damage to plant)) | pest or weed control at 250 g/ha ([2]; 250 g ai/ha, evaluated after 13 days, read-out: damage to plant, Velvetleaf (100=total damage to plant; 0=no damage to plant)) | plant injury at 15.625 g/ha (corn (Zea mays) [10]; 15.625 g ai/ha, read-out: Corn damage rating (100=total damage to plant; 0=no damage to plant))
70%: pest or weed control at 250 g/ha ([1]; 250 g ai/ha, evaluated after 13 days, read-out: damage to plant, Foxtail, Giant (100=total damage to plant; 0=no damage to plant))
50%: pest or weed control at 15.625 g/ha ([1]; 15.625 g ai/ha, evaluated after 13 days (100=total damage to plant; 0=no damage to plant), read-out: Foxtail, Giant damage rating) | pest or weed control at 15.625 g/ha ([3]; 15.625 g ai/ha, evaluated after 13 days (100=total damage to plant; 0=no damage to plant), read-out: Barnyardgrass damage rating) | plant injury at 250 g/ha (corn (Zea mays) [4]; 250 g ai/ha, evaluated after 13 days, read-out: damage to plant, Corn (100=total damage to plant; 0=no damage to plant)) | pest or weed control at 15.625 g/ha ([9]; 15.625 g ai/ha, read-out: Barnyard grass damage rating (100=total damage to plant; 0=no damage to plant)) | plant injury at 250 g/ha (corn (Zea mays) [10]; 250 g ai/ha, read-out: Corn damage rating (100=total damage to plant; 0=no damage to plant))
0%: pest or weed control at 15.625 g/ha ([2]; 15.625 g ai/ha, evaluated after 13 days (100=total damage to plant; 0=no damage to plant), read-out: Velvetleaf damage rating) | pest or weed control at 15.625 g/ha ([5]; 15.625 g ai/ha, evaluated after 13 days (100=total damage to plant; 0=no damage to plant), read-out: Pigweed, Redroot damage rating) | pest or weed control at 62.5 g/ha ([5]; 62.5 g ai/ha, evaluated after 13 days, read-out: Pigweed, Redroot damage rating (100=total damage to plant; 0=no damage to plant)) | pest or weed control at 15.625 g/ha ([6]; 15.625 g ai/ha, evaluated after 13 days (100=total damage to plant; 0=no damage to plant), read-out: Morningglory, Ivy-leaved damage rating) | pest or weed control at 62.5 g/ha ([6]; 62.5 g ai/ha, evaluated after 13 days, read-out: Morningglory, Ivy-leaved damage rating (100=total damage to plant; 0=no damage to plant)) | pest or weed control at 250 g/ha ([6]; 250 g ai/ha, evaluated after 13 days, read-out: damage to plant, Morningglory, Ivy-leaved (100=total damage to plant; 0=no damage to plant)) | pest or weed control at 15.625 g/ha ([8]; 15.625 g ai/ha, read-out: Velvetleaf damage rating (100=total damage to plant; 0=no damage to plant)) | pest or weed control at 62.5 g/ha ([8]; 62.5 g ai/ha, 100=total damage to plant, 0=no damage to plant, read-out: plant damage rating, Velvetleaf) | pest or weed control at 250 g/ha ([8]; 250 g ai/ha, read-out: Velvetleaf damage rating (100=total damage to plant; 0=no damage to plant)) | pest or weed control at 15.625 g/ha ([11]; 15.625 g ai/ha, read-out: Pigweed, Redroot damage rating (100=total damage to plant; 0=no damage to plant)) | pest or weed control at 62.5 g/ha ([11]; 62.5 g ai/ha, 100=total damage to plant, 0=no damage to plant, read-out: plant damage rating, Pigweed, Redroot) | pest or weed control at 250 g/ha ([11]; 250 g ai/ha, read-out: Pigweed, Redroot damage rating (100=total damage to plant; 0=no damage to plant)) | pest or weed control at 15.625 g/ha ([12]; 15.625 g ai/ha, read-out: Morning-glory, Ivy-leaved damage rating (100=total damage to plant; 0=no damage to plant)) | pest or weed control at 62.5 g/ha ([12]; 62.5 g ai/ha, 100=total damage to plant, 0=no damage to plant, read-out: plant damage rating, Morningglory, Ivy-leaved) | pest or weed control at 250 g/ha ([12]; 250 g ai/ha, read-out: Morningglory, Ivy-leaved damage rating (100=total damage to plant; 0=no damage to plant))
60%: pest or weed control at 62.5 g/ha ([1]; 62.5 g ai/ha, evaluated after 13 days, read-out: Foxtail, Giant damage rating (100=total damage to plant; 0=no damage to plant)) | pest or weed control at 62.5 g/ha ([3]; 62.5 g ai/ha, evaluated after 13 days, read-out: Barnyardgrass damage rating (100=total damage to plant; 0=no damage to plant)) | pest or weed control at 250 g/ha ([3]; 250 g ai/ha, evaluated after 13 days, read-out: damage to plant, Barnyardgrass (100=total damage to plant; 0=no damage to plant)) | plant injury at 62.5 g/ha (corn (Zea mays) [4]; 62.5 g ai/ha, evaluated after 13 days, read-out: Corn damage rating (100=total damage to plant; 0=no damage to plant)) | pest or weed control at 15.625 g/ha ([7]; 15.625 g ai/ha, read-out: Foxtail, Giant damage rating (100=total damage to plant; 0=no damage to plant)) | pest or weed control at 62.5 g/ha ([9]; 62.5 g ai/ha, 100=total damage to plant, 0=no damage to plant, read-out: plant damage rating, Barnyardgrass)
80%: pest or weed control at 62.5 g/ha ([7]; 62.5 g ai/ha, 100=total damage to plant, 0=no damage to plant, read-out: plant damage rating, Foxtail, Giant) | pest or weed control at 250 g/ha ([9]; 250 g ai/ha, read-out: Barnyardgrass damage rating (100=total damage to plant; 0=no damage to plant))
